Reference: PubChem BioAssay (NCI)
“And” between values parts separate entries of the source, which are not always exact repeats. Equal values may be shown once.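 Compound exposure: 48 hours, 5 concentrations, 96-well plates. The concentration for 50% growth inhibition is given as GI50. Definition used: TGI = concentration required for complete inhibition of growth.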

Key:
Test in all cases: DTP human tumour cell line panel, 48 h
OVCAR-8 ovarian = system: OVCAR-8 ovarian
CCRF-CEM leukemia = system: CCRF-CEM leukemia
RPMI-8226 leukemia = system: RPMI-8226 leukemia
M14 melanoma = system: M14 melanoma
TK-10 renal = system: TK-10 renal
NCI-H23 lung = system: NCI-H23 lung
SK-MEL-28 melanoma = system: SK-MEL-28 melanoma
SNB-19 CNS = system: SNB-19 CNS
NCI/ADR-RES ovarian = system: NCI/ADR-RES ovarian
SNB-75 CNS = system: SNB-75 CNS

SMILES	TGI (OVCAR-8 ovarian)	TGI (CCRF-CEM leukemia)	TGI (RPMI-8226 leukemia)	TGI (M14 melanoma)	TGI (TK-10 renal)	TGI (NCI-H23 lung)	TGI (SK-MEL-28 melanoma)	TGI (SNB-19 CNS)	TGI (NCI/ADR-RES ovarian)	TGI (SNB-75 CNS)	GI50 (OVCAR-8 ovarian)	GI50 (CCRF-CEM leukemia)	GI50 (RPMI-8226 leukemia)	GI50 (M14 melanoma)	GI50 (TK-10 renal)	GI50 (NCI-H23 lung)	GI50 (SK-MEL-28 melanoma)	GI50 (SNB-19 CNS)	GI50 (NCI/ADR-RES ovarian)	GI50 (SNB-75 CNS)
O=C1C(=O)c2ccccc2C=C1[N+](=O)[O-]	> 100 µM	86.1 µM	> 100 µM	> 100 µM	> 100 µM	> 100 µM	> 100 µM	> 100 µM	76.4 µM	> 100 µM										
O=[n+]1cnn([O-])c2ccccc21	> 100 µM	> 100 µM	> 100 µM	64 µM	> 100 µM	> 100 µM	> 100 µM	> 100 µM	> 100 µM	> 100 µM										
COc1ccc(Nc2nc(NCc3ccccc3)c3ccccc3n2)cc1	5.15 µM	9.19 µM	4.85 µM	5.73 µM	22 µM	13.7 µM	4.1 µM	24.1 µM	23.1 µM	22.4 µM	2.17 µM	2.76 µM	1.85 µM	2.3 µM	8.45 µM	3.02 µM	2.03 µM	9.72 µM	4.14 µM	7.98 µM
CCOc1ccc(/C=N/Nc2cc(C)nc3ccc(Cl)cc23)cc1	5.19 µM	3.76 µM	4.32 µM	2.91 µM	3.37 µM	3.32 µM	3.19 µM	5.07 µM	3.86 µM	3.64 µM	2.34 µM	1.47 µM	1.94 µM	1.53 µM	1.91 µM	1.76 µM	1.78 µM	2.37 µM	1.9 µM	1.86 µM
N#CC(NC12CC3CC(CC(C3)C1)C2)c1ccccc1 (stereo not given)	> 100 µM	> 100 µM	> 100 µM	> 100 µM	> 100 µM	> 100 µM	> 100 µM	> 100 µM	> 100 µM	> 100 µM										
S=c1cn[nH]c2ccc(Br)cc12	> 100 µM	> 100 µM	> 100 µM	> 100 µM	> 100 µM	> 100 µM	> 100 µM	> 100 µM	> 100 µM	> 100 µM										
O=C(/C=C/c1ccccc1Cl)c1ccc(O)cc1	26.3 µM	35 µM	3.39 µM	24.6 µM	32.4 µM	31.5 µM	23 µM	19.6 µM	> 70.6 µM	24.5 µM	8.3 µM	6.18 µM	0.495 µM	10.6 µM	18.1 µM	10.6 µM	11 µM	6.95 µM	16.4 µM	10.6 µM
COc1ccccc1/C=C1\CCC(CN(C)C)C1=O (stereo not given)	26.3 µM	8.47 µM	21.1 µM	11.1 µM	15.7 µM	25.1 µM	12.2 µM	26.7 µM	90.3 µM	17.8 µM										
CN(C)c1cc2c(cc1Sc1nc3c(N)nccc3n1CCNCC(C)(C)C)OCO2	15.8 µM	18.2 µM	19.4 µM	15.9 µM	19.4 µM	22.8 µM	15.6 µM	24.2 µM	24.7 µM	19.1 µM	0.399 µM	0.317 µM	0.658 µM	0.532 µM	0.531 µM	0.448 µM	0.621 µM	1 µM	0.731 µM	1.53 µM
N#Cc1cc(-c2ccccc2)[nH]c1-c1nccc2ccccc12	> 100 µM	> 100 µM	53.2 µM	84.7 µM	> 100 µM	> 100 µM	> 100 µM	> 100 µM	> 100 µM	> 100 µM	22.7 µM	14 µM	4.35 µM	14.9 µM	25.3 µM	6.31 µM	26.5 µM	31.3 µM	6.44 µM	13.7 µM
O=C(O[C@H]1CN[C@H](C#Cc2cc3ncnc(Nc4ccc(Cc5ccccc5)cc4)c3s2)C1)N1CCOCC1	> 23.4 µM	> 25 µM	24.9 µM	18.9 µM	4.97 µM	24.9 µM	10.9 µM	> 25 µM	> 23.8 µM	> 19.4 µM	5.33 µM	6.98 µM	6.47 µM	6.08 µM	0.548 µM	6.35 µM	4.78 µM	7.73 µM	5.72 µM	1.87 µM
O=C(c1ccc(F)c(F)c1Nc1ccc(I)cc1F)N1CC(O)([C@H]2CCCCN2)C1	26.9 µM	29.4 µM	20.8 µM	2.52 µM	15.3 µM	13.1 µM	3.45 µM	22.8 µM	23 µM	20.5 µM	12 µM	12.5 µM	4.03 µM	0.087 µM	1.4 µM	1.09 µM	0.0953 µM	8.08 µM	8.74 µM	5.96 µM
NC(=O)c1cccc(N)c1	> 100 µM	> 100 µM	> 100 µM	> 100 µM	> 100 µM	> 100 µM	> 100 µM	> 100 µM	> 100 µM	> 100 µM	> 100 µM	> 100 µM	> 100 µM	> 100 µM	> 100 µM	> 100 µM	> 100 µM	> 100 µM	> 100 µM	74.6 µM
NC(Cc1cc(Br)c(O)c(Br)c1)C(=O)O (stereo not given)	> 100 µM	> 100 µM	> 100 µM	> 100 µM	> 100 µM	> 100 µM	> 100 µM	> 100 µM	> 100 µM	> 100 µM										
O=Cc1ncc(-c2ccc(C(F)(F)F)cc2)c(NC2CCCCCC2)n1	> 10 µM	> 10 µM	> 10 µM	> 10 µM	> 10 µM	> 10 µM	> 10 µM	> 10 µM	> 10 µM	> 10 µM	> 10 µM	> 10 µM	> 10 µM	> 10 µM	> 10 µM	> 10 µM	> 10 µM	> 10 µM	> 10 µM	> 10 µM
O=S(=O)(c1ccc2c(c1)C(=NO)c1cc(S(=O)(=O)N3CCCCC3)ccc1-2)N1CCCCC1	0.842 µM and 0.281 µM	0.338 µM	0.424 µM and 0.452 µM	0.33 µM and 0.349 µM	> 1 µM and 0.319 µM	> 1 µM and 0.314 µM	> 1 µM and 0.326 µM	0.962 µM and 0.326 µM	> 1 µM and 0.404 µM	0.287 µM and 0.151 µM	0.306 µM and 0.0904 µM	0.0727 µM	0.189 µM and 0.126 µM	0.182 µM and 0.187 µM	0.669 µM and 0.177 µM	> 1 µM and 0.162 µM	0.346 µM and 0.177 µM	0.303 µM and 0.184 µM	> 1 µM and 0.196 µM	0.147 µM and 0.0587 µM
CC(/C=C/C=C/C=C/C=C/C=C/C(O)=C1/C(=O)C(CCC(=O)O)N(C)C1=O)=C\C(C)C(OC1CC(O)C(O)C(C)O1)C(C)C (stereo not given)	15.1 µM	8.47 µM	9.25 µM	15.2 µM	7.92 µM	9.75 µM	10.1 µM	9.44 µM	50.2 µM	22.8 µM										
COC(=O)C1=C(C(=O)Nc2cccnc2)C2OC1(C(Cc1ccccc1)Oc1ccccc1)C1OC21 (stereo not given)	22.8 µM	2.14 µM	6 µM	7.45 µM	2.85 µM	29.1 µM	3.48 µM	28.8 µM	56.5 µM	21.1 µM	7.94 µM	0.36 µM	2.14 µM	2.62 µM	1.51 µM	12.3 µM	1.83 µM	14.8 µM	18.8 µM	8.28 µM
C[C@H]1O[C@@H](O[C@H]2[C@@H](O)C[C@H](O[C@H]3[C@@H](O)C[C@H](O[C@H]4CC[C@]5(C)C6C[C@@H](O)[C@]7(C)[C@@H](C8=CC(=O)OC8)CC[C@]7(O)C6CC[C@@H]5C4)O[C@@H]3C)O[C@@H]2C)C[C@H](O)[C@@H]1O (stereo not given in full)	0.198 µM	0.153 µM	0.377 µM	0.241 µM	0.213 µM	0.112 µM	0.222 µM	0.678 µM	0.147 µM	0.221 µM	0.0788 µM	0.0216 µM	0.117 µM	0.107 µM	0.0266 µM	0.0251 µM	0.104 µM	0.175 µM	0.0552 µM	0.08 µM
C[C@@]12CCC[C@@](C)(C(=O)O)C1CC[C@]13C=C(CO)[C@](O)(CCC12)C3 (stereo not given in full)	> 100 µM	> 100 µM	> 100 µM	> 100 µM	> 100 µM	> 100 µM	> 100 µM	> 100 µM	> 100 µM	> 100 µM	> 100 µM	65.9 µM	> 100 µM	> 100 µM	> 100 µM	> 100 µM	> 100 µM	> 100 µM	> 100 µM	> 100 µM
Clc1ccc(-c2nc(-c3c[nH]c4ncccc34)cs2)cc1	> 100 µM	> 100 µM	> 100 µM	> 100 µM	> 100 µM	> 100 µM	> 100 µM	> 100 µM	> 100 µM	> 100 µM	> 100 µM	> 100 µM	> 100 µM	> 100 µM	> 100 µM	97.7 µM	> 100 µM	> 100 µM	> 100 µM	> 100 µM
O=C1OCC2=C1C(c1cccc([N+](=O)[O-])c1)c1cc3c(cc1N2CCO)CCC3 (stereo not given)	> 50 µM	> 50 µM	> 39 µM	17.2 µM	> 50 µM	> 50 µM	> 39.9 µM	> 50 µM	> 11.3 µM	0.363 µM	0.244 µM	0.216 µM	0.25 µM	0.112 µM	6.42 µM	0.335 µM	1.3 µM	0.2 µM	0.146 µM	0.0513 µM
C=C1C(=O)O[C@H]2[C@H]1CC/C(COC(=O)NCc1c[nH]c3ccc(OC)cc13)=C\CC[C@@]1(C)O[C@@H]21	5.53 µM	1.07 µM	1.52 µM	3.4 µM	3.84 µM	9.33 µM	3.34 µM	18.4 µM	28.8 µM	23.5 µM	1.61 µM	0.152 µM	0.266 µM	1.36 µM	1.95 µM	3 µM	1.52 µM	4.76 µM	7.87 µM	11 µM
COc1c(Nc2ncc(Cl)c(N[C@@H]3[C@H]4C=CC(C4)[C@@H]3C(N)=O)n2)ccc2c1CC[C@@H](N1CCOCC1)CC2	29.6 µM	39.2 µM	28.5 µM	12.7 µM	15.9 µM	24.7 µM	17.7 µM	29.5 µM	24.4 µM	5.89 µM	6.59 µM	5.25 µM	4.28 µM	2.14 µM	1.7 µM	6.02 µM	3.25 µM	9.37 µM	4.58 µM	1.59 µM
CCOC(=O)CC(=O)N(c1ccc(OC)cc1)C(C(=O)OC)c1ccccc1 (stereo not given)	> 100 µM	> 100 µM	> 100 µM	> 100 µM	> 100 µM	> 100 µM	> 100 µM	> 100 µM	> 100 µM	> 100 µM										
Nc1nn(C(=O)Nc2ccc(Cc3ccccc3)cc2)c2ccc(Cl)cc12	> 100 µM	> 58.7 µM	47.7 µM	11.7 µM	50.3 µM	> 82.7 µM	> 100 µM	51.7 µM	51.6 µM	35.2 µM	14.8 µM	3.08 µM	5.21 µM	0.0666 µM	17.7 µM	5.72 µM	7.91 µM	18.1 µM	7.89 µM	15 µM
